These results are taken from patent US8629132B2, “Kinase inhibitors” (Genosco, priority 2009, dated 2014).

One experiment deals with T1, AXL (Homo sapiens, UniProt P30530).
T1 construct: purchased Ambit Biosciences
As to the kind of experiment: In vitro kinase inhibition profile (Ambit Biosciences). The format is binding. The following applies: reported as percent control, lower numbers indicate stronger activities. How it is done: (§1) Up to 518 different kinases have been identified in humans. To determine the scope of inhibitory effects of a representative compound of Formula (I) on known kinases, Compound 82 was tested against 104 commercially available kinases (Ambit Biosciences™). 104 kinases included ABL1(E255K)-phosphorylated, ABL1(T315I)-phosphorylated, ABL1-phosphorylated, ACVR1B, ADCK3, AKT1, AKT2, ALK, AURKA, AURKB, AXL, BMPR2, BRAF, BRAF(V600E), BTK, CDK11, CDK2, CDK3, CDK7, CDK9, CHEK1, CSF1R, CSNK1D, CSNK1G2, DCAMKL1, DYRK1B, EGFR, EGFR(L858R), EPHA2, ERBB2, ERBB4, ERK1, FAK, FGFR2, FGFR3, FLT1, FLT3, FLT4, GSK3B, IGF1R, IKK-α, IKK-β, INSR, JAK2(JH1domain-catalytic), JAK3 (JH1 domain-catalytic), JNK 1, JNK2, JNK3, KIT, KIT(D816V), KIT(V559D,T6701), LKB1, LRRK2, LRRK2(G2019S), MAP3K4, MAPKAPK2, MARKS, MEK1, MEK2, MET, MKNK1, MKNK2, MLK1, MTOR, p38-alpha, p38-beta, PAK1, PAK2, PAK-4, PCTK1, PDGFRA, PDGFRB, PDPK1, PIK3C2B, PIK3CA, PIK3CG, PIM1, PIM2, PIM3, PKAC-alpha, PLK1, PLK3, PLK4, PRKCE, PYK2, RAF1, RET, R10K2, ROCK2, RSK2, SNARK, SRC, SRPK3, SYK, TAK1, TGFBR1, TIE2, TRKA, TSSK1B, TYK2(JH1domain-catalytic), ULK2, VEGFR2, YANK3 and ZAP70.
(§2) Inhibition activity of Compound 82 was reported as percent control where lower numbers indicate stronger activities.

The next experiment addresses T2, JAK3 (Homo sapiens, UniProt P52333).
T2 construct: JAK3 (JH1 domain-catalytic); purchased Ambit Biosciences
Described as above. The format is binding. The following applies: reported as percent control, lower numbers indicate stronger activities. The protocol: as §1, §2

For a further experiment, the target named is T3, KIT (Homo sapiens, UniProt P10721).
T3 construct: purchased Ambit Biosciences
The description is as above. As to conditions: reported as percent control, lower numbers indicate stronger activities. Format: binding. The protocol: as §1, §2

Another experiment has as its target T4, KIT(V559D,T6701) (Homo sapiens, UniProt P10721, T670I/V559D).
T4 construct: purchased Ambit Biosciences
The description is as above. The format is binding. The following applies: reported as percent control, lower numbers indicate stronger activities. How it is done:
as §1, §2

A further experiment has as its target T5, MKNK2 (Homo sapiens, UniProt Q9HBH9).
T5 construct: purchased Ambit Biosciences
Described as above. The format is binding. The following applies: reported as percent control, lower numbers indicate stronger activities. The protocol: as §1, §2

Another experiment deals with T6, MLK1 (Homo sapiens, UniProt P80192).
T6 construct: purchased Ambit Biosciences
The description is as above. The format is binding. As to conditions: reported as percent control, lower numbers indicate stronger activities. The protocol:
as §1, §2

The next experiment addresses T7, PDGFRB (Homo sapiens, UniProt P09619).
T7 construct: purchased Ambit Biosciences
Described as above. Format: binding. As to conditions: reported as percent control, lower numbers indicate stronger activities. How it is done:
as §1, §2

Another experiment has as its target T8, PLK3 (Homo sapiens, UniProt Q9H4B4).
T8 construct: purchased Ambit Biosciences
The description is as above. Format: binding. The following applies: reported as percent control, lower numbers indicate stronger activities. How it is done: as §1, §2

The next experiment deals with T9, RET (Homo sapiens, UniProt P07949).
T9 construct: purchased Ambit Biosciences
Described as above. The format is binding. As to conditions: reported as percent control, lower numbers indicate stronger activities. The protocol: as §1, §2

The target of a further experiment is T10, SNARK (Homo sapiens, UniProt Q9H093).
T10 construct: purchased Ambit Biosciences
The description is as above. The format is binding. The following applies: reported as percent control, lower numbers indicate stronger activities. How it is done:
as §1, §2

A further experiment addresses T11, SRPK3 (Homo sapiens, UniProt Q9UPE1).
T11 construct: purchased Ambit Biosciences
The experiment is described as above. The format is binding. As to conditions: reported as percent control, lower numbers indicate stronger activities. The protocol:
as §1, §2

A further experiment concerns the target T12, SYK (Homo sapiens, UniProt P43405).
T12 construct: Purified full-length human SYK, ZAP70, PIM1, PYK2; purchased Carna Biosciences
The description is as above. Format: binding. The following applies: reported as percent control, lower numbers indicate stronger activities. The protocol: as §1, §2

In a further experiment the target is T13, TAK1 (Homo sapiens, UniProt O43318).
T13 construct: purchased Ambit Biosciences
The experiment is described as above. The following applies: reported as percent control, lower numbers indicate stronger activities. Format: binding. How it is done: as §1, §2

The next experiment concerns the target T14, TYK2 (Homo sapiens, UniProt P29597).
T14 construct: TYK2(JH1domain-catalytic); purchased Ambit Biosciences
Described as above. Format: binding. As to conditions: reported as percent control, lower numbers indicate stronger activities. The protocol: as §1, §2

A further experiment has as its system HEL cells. Nature of the experiment: Cell viability assay: JAK2 inhibition. The format is cell-based, human. How it is done:
Compounds of the invention are tested for their effects on JAK2 inhibition in human erythroleukemic cell line (HEL) to illustrate potential efficacy at the cellular level. The Janus-associated kinase (JAK) family, comprised of four different protein tyrosine kinases JAK1, JAK2, JAK3, and TYK2, plays an important role in cellular survival, proliferation, and differentiation. V617F, a unique mutation in the JAK2 gene (a valine-to-phenylalanine substitution) results in constitutive kinase activity and promotes deregulated hematopoiesis. JAK2 V617F is frequently detected in myeloproliferative disorders (MPDs), a group of clonal hematopoietic stem cell disorders that include polycythemia vera (PV), essential thrombocythemia (ET), and idiopathic myelofibrosis (IMF), all of which have the potential to transform to acute myeloid leukemia. JAK2 V617F is constitutively phosphorylated and able to activate downstream signaling in the absence of cytokine stimulation.
Compounds of the present invention were tested for their effects on viability of HEL cells. For cell viability assay, HEL cells expressing human JAK2 V617F were obtained from the American Type Culture Collection (ATCC, Manassas, Va.). This cell line was maintained with Roswell Park Memorial Institute (RPMI) medium (HyClone™) containing 10 bovine calf serum (BCS; Hyclone™) supplemented iron. The HEL cells were seeded at 2×10^4 cells in 96 well culture plates, and serially diluted compound was then added. After a 72-hour incubation period at 37° C., viability of cells was measured using the ATPLite 1 step assay (Perkin-Elmer™) that is based on the quantification of ATP from viable cells. CellTiter Aqueous assay (Promega™) was also performed in parallel as an orthogonal assay. IC50 values were calculated using nonlinear regression and defined as the concentration needed for a 50 reduction in luminescence or absorbance treated versus untreated control cells (Prism™ Software).

T7 sequence (P09619 33-1106): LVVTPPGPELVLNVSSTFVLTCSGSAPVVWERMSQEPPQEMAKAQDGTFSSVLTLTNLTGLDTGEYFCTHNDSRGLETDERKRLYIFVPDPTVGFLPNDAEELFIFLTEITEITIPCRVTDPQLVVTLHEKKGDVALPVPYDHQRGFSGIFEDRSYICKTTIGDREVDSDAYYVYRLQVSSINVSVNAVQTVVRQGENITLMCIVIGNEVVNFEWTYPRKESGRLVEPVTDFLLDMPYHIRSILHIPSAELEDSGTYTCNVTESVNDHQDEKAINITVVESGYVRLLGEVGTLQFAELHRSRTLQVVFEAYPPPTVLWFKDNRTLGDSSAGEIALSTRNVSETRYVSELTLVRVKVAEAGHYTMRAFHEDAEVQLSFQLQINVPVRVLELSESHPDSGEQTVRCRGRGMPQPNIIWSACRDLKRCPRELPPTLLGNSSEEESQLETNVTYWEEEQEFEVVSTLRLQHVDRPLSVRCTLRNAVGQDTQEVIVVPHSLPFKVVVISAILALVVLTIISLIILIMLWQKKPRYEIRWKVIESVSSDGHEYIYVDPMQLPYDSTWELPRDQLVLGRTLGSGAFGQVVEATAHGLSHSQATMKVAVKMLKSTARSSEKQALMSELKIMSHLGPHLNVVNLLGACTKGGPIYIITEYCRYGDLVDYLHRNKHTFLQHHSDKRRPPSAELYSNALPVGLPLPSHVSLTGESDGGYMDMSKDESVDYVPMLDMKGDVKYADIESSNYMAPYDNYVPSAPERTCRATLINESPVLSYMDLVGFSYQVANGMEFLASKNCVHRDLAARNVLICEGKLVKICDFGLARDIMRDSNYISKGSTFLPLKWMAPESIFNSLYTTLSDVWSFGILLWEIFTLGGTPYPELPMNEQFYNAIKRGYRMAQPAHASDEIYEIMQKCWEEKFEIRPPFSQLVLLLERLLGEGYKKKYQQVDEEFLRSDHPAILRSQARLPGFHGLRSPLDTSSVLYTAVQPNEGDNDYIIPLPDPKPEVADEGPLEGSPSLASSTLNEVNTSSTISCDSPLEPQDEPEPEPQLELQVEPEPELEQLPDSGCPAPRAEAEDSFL
T1 sequence (P30530 26-894): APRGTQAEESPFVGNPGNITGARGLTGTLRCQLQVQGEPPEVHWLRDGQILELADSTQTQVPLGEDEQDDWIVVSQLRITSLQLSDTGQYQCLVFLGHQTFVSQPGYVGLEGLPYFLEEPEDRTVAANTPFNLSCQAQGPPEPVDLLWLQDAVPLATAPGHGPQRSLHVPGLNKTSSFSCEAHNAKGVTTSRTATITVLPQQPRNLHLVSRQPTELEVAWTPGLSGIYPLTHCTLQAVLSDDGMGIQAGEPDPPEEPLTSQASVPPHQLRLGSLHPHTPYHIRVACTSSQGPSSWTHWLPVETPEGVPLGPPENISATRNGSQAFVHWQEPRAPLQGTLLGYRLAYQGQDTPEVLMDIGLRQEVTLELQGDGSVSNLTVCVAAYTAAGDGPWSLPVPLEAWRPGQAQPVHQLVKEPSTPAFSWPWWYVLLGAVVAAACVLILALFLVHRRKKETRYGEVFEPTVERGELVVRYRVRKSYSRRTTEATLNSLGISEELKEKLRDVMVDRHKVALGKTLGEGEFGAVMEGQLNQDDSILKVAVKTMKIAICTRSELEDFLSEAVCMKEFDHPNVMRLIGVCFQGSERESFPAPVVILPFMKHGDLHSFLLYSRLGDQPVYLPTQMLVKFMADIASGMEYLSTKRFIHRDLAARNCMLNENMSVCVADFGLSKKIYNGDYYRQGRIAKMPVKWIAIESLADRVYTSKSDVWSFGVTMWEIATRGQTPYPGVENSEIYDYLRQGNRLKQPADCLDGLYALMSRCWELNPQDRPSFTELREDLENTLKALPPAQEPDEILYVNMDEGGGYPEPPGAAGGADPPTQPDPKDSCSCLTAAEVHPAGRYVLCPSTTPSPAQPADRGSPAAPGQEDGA
T9 sequence (P07949 29-1114): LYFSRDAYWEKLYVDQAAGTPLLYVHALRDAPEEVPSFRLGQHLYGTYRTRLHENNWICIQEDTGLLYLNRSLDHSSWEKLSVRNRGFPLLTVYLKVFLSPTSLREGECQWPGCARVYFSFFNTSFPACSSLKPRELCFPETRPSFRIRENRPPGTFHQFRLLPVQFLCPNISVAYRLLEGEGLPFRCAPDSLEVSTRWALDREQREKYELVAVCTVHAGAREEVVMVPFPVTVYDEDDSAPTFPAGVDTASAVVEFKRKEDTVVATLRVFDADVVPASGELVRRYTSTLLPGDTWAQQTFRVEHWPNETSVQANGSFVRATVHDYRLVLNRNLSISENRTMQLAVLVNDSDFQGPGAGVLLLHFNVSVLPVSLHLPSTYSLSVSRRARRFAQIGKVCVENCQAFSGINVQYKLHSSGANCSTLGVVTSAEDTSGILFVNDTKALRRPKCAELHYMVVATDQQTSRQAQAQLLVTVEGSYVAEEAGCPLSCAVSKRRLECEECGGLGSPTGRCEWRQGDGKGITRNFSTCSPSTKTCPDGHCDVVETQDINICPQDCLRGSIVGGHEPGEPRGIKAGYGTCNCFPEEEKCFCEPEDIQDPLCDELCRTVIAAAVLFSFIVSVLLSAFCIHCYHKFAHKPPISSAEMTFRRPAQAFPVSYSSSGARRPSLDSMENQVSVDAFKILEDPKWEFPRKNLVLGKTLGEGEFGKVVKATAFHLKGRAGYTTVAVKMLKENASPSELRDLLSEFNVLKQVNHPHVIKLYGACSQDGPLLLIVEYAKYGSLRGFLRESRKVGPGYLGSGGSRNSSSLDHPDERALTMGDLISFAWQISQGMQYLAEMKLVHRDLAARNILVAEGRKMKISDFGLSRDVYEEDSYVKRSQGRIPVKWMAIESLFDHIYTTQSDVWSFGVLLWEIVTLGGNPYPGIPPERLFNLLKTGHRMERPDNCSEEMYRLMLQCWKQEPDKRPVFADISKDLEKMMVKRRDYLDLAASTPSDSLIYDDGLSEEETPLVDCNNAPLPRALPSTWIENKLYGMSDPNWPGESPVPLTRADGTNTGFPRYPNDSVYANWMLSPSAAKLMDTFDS
T6 sequence (P80192 whole entry): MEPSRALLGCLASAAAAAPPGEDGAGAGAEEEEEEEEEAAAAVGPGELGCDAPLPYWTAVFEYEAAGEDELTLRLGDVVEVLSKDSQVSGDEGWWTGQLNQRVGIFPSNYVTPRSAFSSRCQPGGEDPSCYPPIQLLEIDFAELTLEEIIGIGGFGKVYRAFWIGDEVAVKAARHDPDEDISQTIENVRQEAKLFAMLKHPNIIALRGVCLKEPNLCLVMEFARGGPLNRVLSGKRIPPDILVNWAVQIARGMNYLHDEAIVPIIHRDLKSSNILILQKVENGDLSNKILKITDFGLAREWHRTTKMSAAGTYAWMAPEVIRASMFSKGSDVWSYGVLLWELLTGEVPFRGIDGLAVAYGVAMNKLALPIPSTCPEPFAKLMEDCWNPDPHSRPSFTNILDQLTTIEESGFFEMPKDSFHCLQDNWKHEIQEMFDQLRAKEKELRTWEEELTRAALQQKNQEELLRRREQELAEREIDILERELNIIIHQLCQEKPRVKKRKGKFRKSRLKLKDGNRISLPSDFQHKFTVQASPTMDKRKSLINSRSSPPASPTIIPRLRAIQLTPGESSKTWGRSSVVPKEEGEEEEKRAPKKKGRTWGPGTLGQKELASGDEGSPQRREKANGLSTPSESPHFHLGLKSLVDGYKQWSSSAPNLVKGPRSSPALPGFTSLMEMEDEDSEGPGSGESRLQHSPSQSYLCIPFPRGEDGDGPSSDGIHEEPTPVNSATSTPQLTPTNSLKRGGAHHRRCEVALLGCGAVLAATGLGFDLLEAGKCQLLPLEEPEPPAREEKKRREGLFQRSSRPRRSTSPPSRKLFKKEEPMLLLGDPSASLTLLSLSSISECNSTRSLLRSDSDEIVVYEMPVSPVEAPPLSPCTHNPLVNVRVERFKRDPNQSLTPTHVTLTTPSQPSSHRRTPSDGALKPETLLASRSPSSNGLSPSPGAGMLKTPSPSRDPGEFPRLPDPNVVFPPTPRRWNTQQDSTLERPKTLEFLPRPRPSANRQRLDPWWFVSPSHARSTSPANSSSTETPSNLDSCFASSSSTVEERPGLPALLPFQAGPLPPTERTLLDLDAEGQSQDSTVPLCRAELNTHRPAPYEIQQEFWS
T13 sequence (O43318 whole entry): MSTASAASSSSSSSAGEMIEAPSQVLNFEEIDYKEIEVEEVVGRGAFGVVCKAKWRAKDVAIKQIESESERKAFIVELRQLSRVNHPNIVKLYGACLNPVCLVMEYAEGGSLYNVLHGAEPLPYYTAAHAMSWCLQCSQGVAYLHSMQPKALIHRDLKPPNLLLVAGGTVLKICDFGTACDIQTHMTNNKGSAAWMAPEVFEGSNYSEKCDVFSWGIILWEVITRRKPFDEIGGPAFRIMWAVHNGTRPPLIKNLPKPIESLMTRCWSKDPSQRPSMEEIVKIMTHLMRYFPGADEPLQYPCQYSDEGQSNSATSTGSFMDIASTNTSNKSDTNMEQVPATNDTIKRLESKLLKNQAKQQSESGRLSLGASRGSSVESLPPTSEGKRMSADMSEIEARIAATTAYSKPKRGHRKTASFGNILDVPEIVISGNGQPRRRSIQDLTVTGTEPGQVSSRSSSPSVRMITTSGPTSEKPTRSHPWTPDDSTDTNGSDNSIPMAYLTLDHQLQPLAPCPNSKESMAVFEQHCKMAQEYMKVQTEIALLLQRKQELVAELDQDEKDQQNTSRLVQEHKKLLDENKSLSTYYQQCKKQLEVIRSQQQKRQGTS
T14 sequence (P29597 897-1176 limits assumed): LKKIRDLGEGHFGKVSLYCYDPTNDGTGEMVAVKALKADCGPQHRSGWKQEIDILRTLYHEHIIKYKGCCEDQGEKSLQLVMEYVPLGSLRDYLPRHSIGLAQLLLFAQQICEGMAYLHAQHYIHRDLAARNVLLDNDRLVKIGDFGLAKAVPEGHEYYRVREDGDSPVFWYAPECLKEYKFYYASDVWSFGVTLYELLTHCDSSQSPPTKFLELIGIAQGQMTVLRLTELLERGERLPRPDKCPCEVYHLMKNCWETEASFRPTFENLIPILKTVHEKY

Turning to `Cc1cc(C)cc(Nc2ncc(F)c(-n3cc(C)c(CN4CC[C@@H](O)C4)c3)n2)c1` [Compound 82, (R)-1-((1-(2-(3,5-dimethylphenyl-amino)-5-fluoropyrimidin-4-yl)-4-methyl-1H-pyrrol-3-yl)methyl) pyrrolidin-3-ol], the “% of control AXL” value at AXL is 31%. The “% of control JAK3” value at JAK3 was 5.4%. In addition, the “% of control (remaining binding)” value on KIT amounted to 26%. For the same molecule, the Percent of control at KIT(V559D,T6701) was 28%. In addition, the “% of control binding MKNK2” value at MKNK2 came to 34%. The “% of control” value at MLK1 came to 22%; on TYK2, 21%. In addition, at PDGFRB, the “% of control PDGFRB” value came to 1.8%. Besides, at PLK3, the “percent of control (lower = stronger binding)” value was determined as 11%. In addition, the “RET binding, % of control” value at RET is given as 32%. Moreover, at SNARK, the “% of control SNARK” value was determined as 4.2%. Besides, at SRPK3, the “% of control SRPK3 binding” value turned out to be 25%. Also, the “% of control SYK” value at SYK is listed as 1%. Moreover, the “% of control remaining TAK1 binding” value at TAK1 came out at 22%.

On to `COc1cc(Nc2ncc(C)c(-n3cc(C)c(CO)c3)n2)cc(OC)c1OC` [Compound 21, (4-methyl-1-(5-methyl-2-(3,4,5-trimethoxyphenylamino)pyrimidin-4-yl)-1H-pyrrol-3-yl)methanol], for which, in the experiment on HEL cells (HEL), the “inhibition level compared with Sorafenib” value was “greater than those exhibited by Sorafenib”. In addition, the IC50 in the experiment on HEL cells (Homo sapiens, 72-hour incubation, HEL cells expressing JAK2 V617F, read-out: Cell Viability: JAK2 kinase Inhibition HEL (IC50 nM)) was 144 nM.
